The values below come from ChEMBL document CHEMBL1201862, “PubChem BioAssay data set” (2004).

Assay [1] deals with T1, Ubiquitin-conjugating enzyme E2 N (Homo sapiens, UniProt P61088).
T1 sequence (P61088 whole entry): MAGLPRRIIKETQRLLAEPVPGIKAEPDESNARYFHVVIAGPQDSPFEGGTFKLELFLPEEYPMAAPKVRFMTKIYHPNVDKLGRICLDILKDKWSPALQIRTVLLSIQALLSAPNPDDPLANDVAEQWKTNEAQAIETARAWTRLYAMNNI
The format is functional.

The target of assay [2] is T2, Bcl-2-related protein A1 (Mus musculus, UniProt Q07440).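 Further: confirmatory dose–response counterscreen on Bfl-1, used to check hits from a UBC13 polyubiquitin inhibitor campaign.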
T2 sequence (Q07440 whole entry): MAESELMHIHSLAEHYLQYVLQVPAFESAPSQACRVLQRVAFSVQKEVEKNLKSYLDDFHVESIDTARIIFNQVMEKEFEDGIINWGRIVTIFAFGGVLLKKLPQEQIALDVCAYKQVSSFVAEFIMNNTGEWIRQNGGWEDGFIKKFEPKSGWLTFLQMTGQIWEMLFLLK
Format: functional.

Assay [3] concerns the target T1, Ubiquitin-conjugating enzyme E2 N. Format: functional. This is another data set of the same source.
Assay [4] has as its target T3, Polyadenylate-binding protein 1 (Homo sapiens, UniProt P11940). The assay is described as follows: PABP1 MLLE–PAM2 binding inhibitor potency, dose response, biochemical, fluorescence polarization, FITC-PAM2 peptide (AID 602259). Format: functional. The settings on record: read-out: IC50_Mean.
Assay [5] addresses T4, Fatty acid synthase (Homo sapiens, UniProt P49327). Kind of assay: FAS thioesterase domain inhibitors, dose response, biochemical, endpoint fluorescence intensity, uHTS hits (AID 624327).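 Further: fluorescence from hydrolysis of an O-methyl fluorescein acyl ester substrate by the enzyme.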 The format is functional.
Assay [6] deals with Genome polyprotein (dengue virus type 2, UniProt P29990). Kind of assay: Dengue-2 NS5 methyltransferase inhibitors, primary screen, biochemical, confirmation dose response (AID 588689). The format is functional.
The nature of assay [7]: THP-1 cell cytotoxicity, dose response, cytotoxicity control for Vif-APOBEC3G degradation inhibitor project, THP-1 cells (AID 1117359). The format is functional. The settings on record: Human immunodeficiency virus 1, THP-1.
Assay [8] has as its system CHO. Kind of assay: cytotoxicity in TLR9-MyD88 CHO cells, dose response, cytotoxicity control for TLR9-MyD88 binding inhibitor project, cell-based, luminescence (AID 588339).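 Further: CHO cells stably coexpressing TLR9 and MyD88 fusions from primary screen; compound exposure lasted 48 hours before viability readout.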 As to conditions: Cricetulus griseus. The format is functional, hamster.
The nature of assay [9]: non-specific cell cytotoxicity, dose response, cytotoxicity control for PAX8 inhibitor project, plate reader, dry powder samples (AID 743021). Format: functional, cell-based.
Assay [10] deals with T3, Polyadenylate-binding protein 1. The assay is described as follows: PABP1 MLLE–PAM2 interaction inhibitors, dose response, miRNA deadenylation inhibitor project, biochemical, fluorescence polarization, Cy5-PAM2 peptide, secondary (AID 602260). The format is functional. The settings on record: read-out: IC50_Mean. (In general: In fluorescence polarisation assays a small probe gives low polarisation when free and higher when bound to something large.)

Assay [11] deals with Heat shock protein HSP 90-alpha (Homo sapiens, UniProt P07900). The format is functional, organism-based.
The target of assay [12] is Beta Lactamase (Pseudomonas aeruginosa, UniProt Q932Y6). The assay is described as follows: beta-lactamase reporter inhibitor potency, dose response, artefact control for TLR9-MyD88 binding inhibitor project, BLA reporter cells, FRET fluorescence (AID 588341).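 Further: cell based assay in CHO-K1 cells stably expressing beta-lactamase.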 Format: cell-based.
For assay [13], the target named is Paired box protein Pax-8 (Homo sapiens, UniProt Q06710). Kind of assay: inhibitors of PAX8-driven TPO luciferase reporter, dose response, RMG-I cells, cherry-pick (AID 687027).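 Further: luciferase reporter driven by Pax8 target thyroperoxidase promoter measured by SteadyGlo luminescence.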 Format: functional, cell-based. (In general: A reporter such as luciferase makes a cellular process visible.)
The subject of assay [14] is Vero. The assay is described as follows: Vero cell cytotoxicity, cytotoxicity control for flavivirus capping enzyme inhibitors (AID 588742). As to conditions: Chlorocebus sabaeus. Format: functional.
In assay [15] the target is T5, Hexokinase HKDC1 (Homo sapiens, UniProt Q2TB90).
T5 sequence (Q2TB90 whole entry): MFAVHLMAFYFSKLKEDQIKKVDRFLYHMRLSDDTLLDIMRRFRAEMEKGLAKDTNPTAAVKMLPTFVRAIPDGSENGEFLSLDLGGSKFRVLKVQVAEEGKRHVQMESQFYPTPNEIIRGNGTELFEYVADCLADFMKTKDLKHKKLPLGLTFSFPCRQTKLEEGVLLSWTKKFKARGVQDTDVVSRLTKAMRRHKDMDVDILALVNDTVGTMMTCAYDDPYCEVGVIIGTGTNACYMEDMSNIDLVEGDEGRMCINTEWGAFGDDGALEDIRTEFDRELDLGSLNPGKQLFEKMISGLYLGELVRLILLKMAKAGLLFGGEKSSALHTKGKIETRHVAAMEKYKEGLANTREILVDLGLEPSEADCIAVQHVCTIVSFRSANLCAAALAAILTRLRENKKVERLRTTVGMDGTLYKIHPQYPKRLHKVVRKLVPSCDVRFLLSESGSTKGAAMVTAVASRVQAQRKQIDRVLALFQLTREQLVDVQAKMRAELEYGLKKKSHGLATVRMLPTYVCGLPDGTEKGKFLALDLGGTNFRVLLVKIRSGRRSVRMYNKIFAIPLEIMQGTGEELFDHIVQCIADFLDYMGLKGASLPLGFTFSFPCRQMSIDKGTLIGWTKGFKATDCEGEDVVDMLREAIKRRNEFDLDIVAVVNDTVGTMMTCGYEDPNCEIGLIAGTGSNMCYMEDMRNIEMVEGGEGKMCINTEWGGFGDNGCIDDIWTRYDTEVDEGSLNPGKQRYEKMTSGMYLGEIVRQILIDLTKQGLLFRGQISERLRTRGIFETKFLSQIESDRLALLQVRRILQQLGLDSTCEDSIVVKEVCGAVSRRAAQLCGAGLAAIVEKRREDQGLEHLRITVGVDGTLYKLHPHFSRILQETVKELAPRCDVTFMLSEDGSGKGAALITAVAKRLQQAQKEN
Kind of assay: HKDC1 hexokinase inhibitors, dose response, biochemical, W721R variant (AID 504729). Format: functional.

The target of assay [16] is T4, Fatty acid synthase. Kind of assay: FAS thioesterase domain inhibitors, dose response, biochemical, kinetic fluorescence intensity (AID 624326).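 Further: rate of fluorescence rise from hydrolysis of a fluorogenic O-methyl fluorescein ester substrate.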 The format is functional.
Assay [17] concerns the target T6, Tyrosyl-DNA phosphodiesterase 2 (Homo sapiens, UniProt O95551).
T6 sequence (O95551 whole entry): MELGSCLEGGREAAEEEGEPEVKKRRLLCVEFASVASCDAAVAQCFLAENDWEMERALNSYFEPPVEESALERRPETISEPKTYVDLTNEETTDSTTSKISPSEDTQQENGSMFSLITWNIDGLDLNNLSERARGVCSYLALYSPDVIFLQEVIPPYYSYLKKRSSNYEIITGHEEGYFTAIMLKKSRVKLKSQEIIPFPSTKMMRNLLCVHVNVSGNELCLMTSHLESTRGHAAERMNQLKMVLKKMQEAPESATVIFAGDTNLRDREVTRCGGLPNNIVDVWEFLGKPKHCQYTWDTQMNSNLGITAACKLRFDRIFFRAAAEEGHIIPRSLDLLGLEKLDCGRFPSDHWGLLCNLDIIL
The assay is described as follows: human TDP2 enzyme inhibitors, dose response, biochemical, epi absorbance, IC50 (AID 743297).

In assay [18] the test system is HEK293. The assay is described as follows: NOD2 signaling inhibitors in MDP-stimulated cells, cell-based, uHTS, luminescence (AID 2001). The format is functional. As to conditions: Homo sapiens.
The target of assay [19] is Nucleotide-binding oligomerization domain-containing protein 2 (Homo sapiens, UniProt Q9HC29). Kind of assay: NOD2 signaling inhibitors, cell-based, luminescence, uHTS, HEK293 (AID 1566). Format: functional.
Sequence of Nucleotide-binding oligomerization domain-containing protein 2 (Q9HC29 whole entry, the tested form may be a part): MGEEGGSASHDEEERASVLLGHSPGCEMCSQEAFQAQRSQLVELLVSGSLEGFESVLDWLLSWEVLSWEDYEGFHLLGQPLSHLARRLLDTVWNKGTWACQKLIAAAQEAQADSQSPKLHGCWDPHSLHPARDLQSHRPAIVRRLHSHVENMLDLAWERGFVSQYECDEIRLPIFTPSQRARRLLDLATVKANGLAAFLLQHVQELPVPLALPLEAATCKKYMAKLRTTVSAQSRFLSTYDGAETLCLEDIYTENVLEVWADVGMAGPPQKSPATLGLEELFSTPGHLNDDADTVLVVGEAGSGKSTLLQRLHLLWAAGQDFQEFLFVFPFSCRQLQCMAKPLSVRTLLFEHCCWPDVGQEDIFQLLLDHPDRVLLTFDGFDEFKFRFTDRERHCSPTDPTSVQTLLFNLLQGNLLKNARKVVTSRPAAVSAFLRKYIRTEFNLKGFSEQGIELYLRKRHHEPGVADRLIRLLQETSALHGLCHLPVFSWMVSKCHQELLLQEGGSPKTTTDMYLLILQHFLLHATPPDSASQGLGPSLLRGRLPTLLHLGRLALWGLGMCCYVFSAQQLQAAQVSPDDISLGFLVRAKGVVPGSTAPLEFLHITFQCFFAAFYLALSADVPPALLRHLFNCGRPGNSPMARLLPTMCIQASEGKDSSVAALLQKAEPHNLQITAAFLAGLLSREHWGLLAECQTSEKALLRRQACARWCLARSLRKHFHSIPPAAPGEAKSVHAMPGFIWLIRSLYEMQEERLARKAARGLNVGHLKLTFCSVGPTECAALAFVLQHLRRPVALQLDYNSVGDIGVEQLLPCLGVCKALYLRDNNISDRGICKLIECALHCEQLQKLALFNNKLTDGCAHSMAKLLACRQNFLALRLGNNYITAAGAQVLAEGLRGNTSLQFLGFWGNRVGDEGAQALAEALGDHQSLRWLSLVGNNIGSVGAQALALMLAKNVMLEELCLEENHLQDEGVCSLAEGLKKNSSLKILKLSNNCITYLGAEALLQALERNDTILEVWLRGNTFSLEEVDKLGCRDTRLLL
For assay [20], the system named is HEK293. The assay is described as follows: cells. As to conditions: Homo sapiens. The format is functional, cell-based.
The subject of assay [21] is HEK293. Kind of assay: NOD1 signaling inhibitors, primary screen, cell-based, luminescence, uHTS (AID 1578). Format: functional. The settings on record: Homo sapiens.
In assay [22] the test system is HEK293. Kind of assay: cells. Format: functional, cell-based. The settings on record: Homo sapiens. This is another data set of the same source.
For assay [23], the system named is HEK293. The assay is described as follows: cells. Format: functional, cell-based. The settings on record: Homo sapiens. This is another data set of the same source.
Assay [24] concerns the target Beta-galactosidase (Escherichia coli, UniProt Q8VNN2). The assay is described as follows: beta-galactosidase enzyme inhibitors and activators, dose response, artefact control for CCR6 antagonist project, biochemical, E. coli enzyme, set 3 (AID 504712). The format is functional.
Assay [25] concerns the target Alkaline phosphatase, placental type (Homo sapiens, UniProt P05187). Kind of assay: PLAP enzyme inhibitors, confirmation, biochemical, luminescence (AID 1512). Format: functional.
Assay [26] concerns the target T7, Alkaline phosphatase, tissue-nonspecific isozyme (Homo sapiens, UniProt P05186).
T7 sequence (P05186 whole entry): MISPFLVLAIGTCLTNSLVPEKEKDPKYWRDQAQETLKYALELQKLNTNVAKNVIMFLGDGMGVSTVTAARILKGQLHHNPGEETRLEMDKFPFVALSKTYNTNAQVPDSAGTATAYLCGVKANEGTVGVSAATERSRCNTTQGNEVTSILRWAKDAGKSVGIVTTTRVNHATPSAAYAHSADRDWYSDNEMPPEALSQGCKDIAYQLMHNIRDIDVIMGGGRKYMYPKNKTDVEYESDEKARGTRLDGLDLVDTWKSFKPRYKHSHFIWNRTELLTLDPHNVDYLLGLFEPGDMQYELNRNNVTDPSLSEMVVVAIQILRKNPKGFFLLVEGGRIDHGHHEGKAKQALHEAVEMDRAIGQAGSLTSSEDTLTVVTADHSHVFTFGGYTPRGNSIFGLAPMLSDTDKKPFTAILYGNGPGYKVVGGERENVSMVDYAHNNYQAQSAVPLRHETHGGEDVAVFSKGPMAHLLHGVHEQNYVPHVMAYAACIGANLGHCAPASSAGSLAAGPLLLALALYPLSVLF
Kind of assay: human TNAP enzyme inhibitors, SAR follow-up, biochemical, luminescent, dose response (AID 1056).

Assay [27] deals with Glyceraldehyde-3-phosphate dehydrogenase (Homo sapiens, UniProt P04406).
Assay [28] concerns the target Eukaryotic translation initiation factor 4H (Homo sapiens, UniProt Q15056). Kind of assay: eIF4H inhibition in translation initiation, SAR follow-up (AID 435011). The format is functional.
The target in assay [29] is T3, Polyadenylate-binding protein 1. The assay is described as follows: PABP inhibition in translation initiation, SAR follow-up (AID 435018). Format: functional.
Assay [30] deals with T8, Coagulation factor XII (Homo sapiens, UniProt P00748).
T8 sequence (P00748 whole entry): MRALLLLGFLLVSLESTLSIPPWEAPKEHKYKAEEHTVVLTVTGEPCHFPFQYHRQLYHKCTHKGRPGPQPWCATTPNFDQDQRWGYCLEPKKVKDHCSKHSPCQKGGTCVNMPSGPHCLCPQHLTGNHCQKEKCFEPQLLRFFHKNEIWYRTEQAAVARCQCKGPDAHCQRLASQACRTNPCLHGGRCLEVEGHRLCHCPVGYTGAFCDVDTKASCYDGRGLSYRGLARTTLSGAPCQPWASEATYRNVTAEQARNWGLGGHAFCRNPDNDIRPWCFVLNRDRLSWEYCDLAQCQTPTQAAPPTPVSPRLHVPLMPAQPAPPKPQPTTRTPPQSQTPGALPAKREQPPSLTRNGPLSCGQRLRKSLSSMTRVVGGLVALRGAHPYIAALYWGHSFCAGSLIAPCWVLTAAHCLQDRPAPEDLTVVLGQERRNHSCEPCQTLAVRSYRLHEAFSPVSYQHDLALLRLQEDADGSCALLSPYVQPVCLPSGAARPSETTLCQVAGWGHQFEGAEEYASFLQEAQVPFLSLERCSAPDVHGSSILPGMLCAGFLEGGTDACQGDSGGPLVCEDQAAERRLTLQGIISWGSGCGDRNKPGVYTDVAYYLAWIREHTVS
The assay is described as follows: FXIIa inhibitor potency, concentration-response, biochemical (AID 716). The format is functional.

The source made the active and inactive calls.

T3 sequence (P11940 whole entry, the tested form may be a part): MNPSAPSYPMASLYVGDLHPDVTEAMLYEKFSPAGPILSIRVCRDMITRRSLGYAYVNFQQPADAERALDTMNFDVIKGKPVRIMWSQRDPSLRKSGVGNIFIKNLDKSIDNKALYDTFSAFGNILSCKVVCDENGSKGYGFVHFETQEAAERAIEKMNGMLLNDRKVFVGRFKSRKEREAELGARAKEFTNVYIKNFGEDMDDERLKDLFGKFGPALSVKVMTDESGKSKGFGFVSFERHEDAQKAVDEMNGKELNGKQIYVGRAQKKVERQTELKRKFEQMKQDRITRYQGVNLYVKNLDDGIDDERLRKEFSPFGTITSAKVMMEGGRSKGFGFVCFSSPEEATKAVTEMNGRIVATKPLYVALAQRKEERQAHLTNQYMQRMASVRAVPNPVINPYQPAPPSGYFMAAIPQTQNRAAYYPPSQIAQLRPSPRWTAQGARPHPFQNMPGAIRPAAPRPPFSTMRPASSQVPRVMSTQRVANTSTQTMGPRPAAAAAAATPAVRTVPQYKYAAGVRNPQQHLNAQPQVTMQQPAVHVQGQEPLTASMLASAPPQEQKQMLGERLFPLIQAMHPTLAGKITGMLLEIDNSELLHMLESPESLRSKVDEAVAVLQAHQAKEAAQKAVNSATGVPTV
T4 sequence (P49327 whole entry, the tested form may be a part): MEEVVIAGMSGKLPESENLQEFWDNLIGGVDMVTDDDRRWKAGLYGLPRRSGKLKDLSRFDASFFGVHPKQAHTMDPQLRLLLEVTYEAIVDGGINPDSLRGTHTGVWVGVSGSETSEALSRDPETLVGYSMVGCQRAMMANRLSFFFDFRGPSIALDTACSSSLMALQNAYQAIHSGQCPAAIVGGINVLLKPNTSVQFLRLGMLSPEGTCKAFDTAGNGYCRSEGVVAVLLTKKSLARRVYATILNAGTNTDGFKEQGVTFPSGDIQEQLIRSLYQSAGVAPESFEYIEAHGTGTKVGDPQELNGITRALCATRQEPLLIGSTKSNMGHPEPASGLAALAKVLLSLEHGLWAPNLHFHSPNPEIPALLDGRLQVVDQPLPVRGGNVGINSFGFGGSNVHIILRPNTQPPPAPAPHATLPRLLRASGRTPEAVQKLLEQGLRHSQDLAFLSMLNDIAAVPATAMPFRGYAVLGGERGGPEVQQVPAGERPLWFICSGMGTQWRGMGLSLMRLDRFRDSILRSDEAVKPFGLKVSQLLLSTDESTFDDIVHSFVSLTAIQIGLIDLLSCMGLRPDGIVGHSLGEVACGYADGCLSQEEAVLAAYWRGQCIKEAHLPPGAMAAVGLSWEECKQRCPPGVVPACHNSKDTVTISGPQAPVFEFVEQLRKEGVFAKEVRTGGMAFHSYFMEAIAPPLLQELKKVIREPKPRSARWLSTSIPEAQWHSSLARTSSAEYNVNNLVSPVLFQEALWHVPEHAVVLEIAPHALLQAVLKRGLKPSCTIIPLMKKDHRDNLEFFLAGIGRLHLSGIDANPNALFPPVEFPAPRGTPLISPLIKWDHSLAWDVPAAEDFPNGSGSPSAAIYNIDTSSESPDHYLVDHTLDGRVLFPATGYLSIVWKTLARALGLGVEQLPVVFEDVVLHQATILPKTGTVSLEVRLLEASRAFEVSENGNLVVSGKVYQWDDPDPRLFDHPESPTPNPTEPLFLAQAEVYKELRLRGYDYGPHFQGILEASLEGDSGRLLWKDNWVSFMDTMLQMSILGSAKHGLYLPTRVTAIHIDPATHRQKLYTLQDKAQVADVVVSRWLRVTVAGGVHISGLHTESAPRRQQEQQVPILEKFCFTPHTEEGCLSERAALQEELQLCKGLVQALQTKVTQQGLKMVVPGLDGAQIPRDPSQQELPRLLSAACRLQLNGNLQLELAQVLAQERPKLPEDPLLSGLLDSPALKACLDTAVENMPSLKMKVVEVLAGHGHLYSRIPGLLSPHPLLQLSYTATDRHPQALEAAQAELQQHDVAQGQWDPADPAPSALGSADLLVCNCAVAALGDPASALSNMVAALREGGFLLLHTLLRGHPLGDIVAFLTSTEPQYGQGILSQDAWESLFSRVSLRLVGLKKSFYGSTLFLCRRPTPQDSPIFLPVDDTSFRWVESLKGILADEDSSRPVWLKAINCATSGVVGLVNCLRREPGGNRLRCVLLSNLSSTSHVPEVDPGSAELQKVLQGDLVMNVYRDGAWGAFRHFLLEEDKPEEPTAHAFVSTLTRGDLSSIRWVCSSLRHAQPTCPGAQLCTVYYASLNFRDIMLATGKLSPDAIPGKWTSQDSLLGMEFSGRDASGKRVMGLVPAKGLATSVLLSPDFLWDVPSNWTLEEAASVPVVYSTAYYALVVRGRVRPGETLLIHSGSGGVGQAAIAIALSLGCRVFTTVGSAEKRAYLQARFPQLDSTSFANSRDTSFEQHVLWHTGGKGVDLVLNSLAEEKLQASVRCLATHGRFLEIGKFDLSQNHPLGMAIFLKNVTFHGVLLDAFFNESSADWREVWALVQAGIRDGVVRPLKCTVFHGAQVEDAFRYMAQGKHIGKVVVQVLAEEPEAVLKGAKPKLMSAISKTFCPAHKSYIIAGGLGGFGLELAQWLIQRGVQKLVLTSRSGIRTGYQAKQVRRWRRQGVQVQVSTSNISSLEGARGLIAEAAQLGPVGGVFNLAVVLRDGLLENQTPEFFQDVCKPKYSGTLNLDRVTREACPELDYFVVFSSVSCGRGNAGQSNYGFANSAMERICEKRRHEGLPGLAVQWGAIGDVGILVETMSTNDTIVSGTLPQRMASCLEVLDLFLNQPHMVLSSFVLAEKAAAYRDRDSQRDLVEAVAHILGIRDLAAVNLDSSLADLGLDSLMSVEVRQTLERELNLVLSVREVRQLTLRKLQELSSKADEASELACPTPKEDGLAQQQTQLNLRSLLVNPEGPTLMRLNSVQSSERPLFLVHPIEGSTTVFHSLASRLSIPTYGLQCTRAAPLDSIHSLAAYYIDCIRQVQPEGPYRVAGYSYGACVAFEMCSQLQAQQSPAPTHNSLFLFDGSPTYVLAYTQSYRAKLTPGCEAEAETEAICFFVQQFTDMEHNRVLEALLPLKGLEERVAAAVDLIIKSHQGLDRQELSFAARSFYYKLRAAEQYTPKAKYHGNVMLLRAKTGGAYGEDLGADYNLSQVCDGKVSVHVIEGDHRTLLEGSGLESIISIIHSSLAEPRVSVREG
Sequence of Alkaline phosphatase, placental type (P05187 whole entry): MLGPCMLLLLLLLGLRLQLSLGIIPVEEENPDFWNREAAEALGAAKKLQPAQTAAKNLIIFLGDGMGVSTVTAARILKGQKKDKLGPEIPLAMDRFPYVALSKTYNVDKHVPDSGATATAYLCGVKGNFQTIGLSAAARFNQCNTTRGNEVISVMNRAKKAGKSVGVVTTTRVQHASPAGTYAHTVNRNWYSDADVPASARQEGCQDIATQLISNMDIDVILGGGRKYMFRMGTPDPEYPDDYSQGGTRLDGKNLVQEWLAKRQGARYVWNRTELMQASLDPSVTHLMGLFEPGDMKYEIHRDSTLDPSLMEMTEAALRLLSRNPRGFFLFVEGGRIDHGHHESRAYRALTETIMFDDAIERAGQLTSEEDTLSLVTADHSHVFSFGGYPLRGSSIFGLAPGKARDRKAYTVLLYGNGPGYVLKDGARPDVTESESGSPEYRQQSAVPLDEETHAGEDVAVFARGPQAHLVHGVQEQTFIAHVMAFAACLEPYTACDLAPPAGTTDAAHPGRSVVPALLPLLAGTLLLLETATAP

In the case of `CCCN1CCN(C(=O)C2CCN(c3ncnc4c3nc3n4CCCCC3)CC2)CC1`, the IC50 in assay [1] was 6.38 µM (active); in assay [2] it was > 20 µM (inactive); in assay [3] it was 14.2 µM (active).
Consider `CCCC(=O)NC1=C(Cl)C(=O)c2ccccc2C1=O`, for which the IC50 was > 66 µM (inactive) in assay [4]; 37.7 µM (inactive) in assay [5]; 14.5 µM (active) in assay [6]; 891 nM (active) in assay [8]; > 66 µM (inactive) in assay [10]; 6.78 µM (active) in assay [12]. For the same compound, the IC50 in assay [15] is 3.93 µM (active); in [16], 12.7 µM (active); in assay [17], 11.8 µM (inactive). Also, the CC50 (in general, the concentration that lowers cell viability or growth by half) in [7] was 3.81 µM (active); in assay [14] it was 27.4 µM (active). Also, the AC50 – broadly, the midpoint of the concentration-response curve, whichever way the signal moves – in assay [9] is 28.3 µM (active); in assay [11], < 195 nM (active); in [13], 2.54 µM (active).
Turning to `CC(/C=C/c1ccccc1)=N/NC(=O)c1cccc(Br)c1`, the IC50 in [18] is 2.7 µM (active); in assay [20], > 20 µM (inactive); in assay [22], > 20 µM (inactive); in [23], > 20 µM (inactive); in assay [24] it was > 66.6 µM (inactive). Further, the results for the EC50 in assay [19] and in assay [21] were > 20 µM (inactive) and 3.65 µM (active), respectively.
Turning to `Nc1nc(Cc2cccc(Br)c2)n(-c2ccccc2)n1`, the IC50 is > 100 µM (inactive) in assay [25], > 100 µM (inactive) in [26] and > 100 µM (not active) in [27].
With `COc1ccc(NC(=O)C2CCCN2C(=O)Oc2ccccc2)cc1` (stereo not given), the IC50 in assay [28] and in assay [29] was > 100 µM (inactive) in each case.
Turning to `C=CCn1c(COc2ccc(CC)cc2)nnc1SCC(=O)N(C)C1CCS(=O)(=O)C1` (stereo not given), the IC50 in assay [30] is > 50 µM (inactive).
